Measured values reported in PubChem BioAssay (NCI).
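Grown in 96-well plates, cells were treated for 48 hours with each compound at five concentrations. Insufficient inhibition: endpoint recorded as highest concentration tested. Here, GI50 denotes the concentration required for 50% inhibition of growth. TGI marks complete inhibition of growth.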

Tested on: K-562 leukemia
Test: NCI anticancer screen, dose series, 48 h

Row | SMILES | GI50 [µM] | TGI [µM]
1 | Nc1nc(N)c2nc(CNc3ccc(C(=O)NC(CC(=O)O)C(=O)O)cc3)cnc2n1 (stereo not drawn) | 0.0741 | > 100
2 | O=C1c2cccc(NCCN=Cc3cc([N+](=O)[O-])ccc3O)c2C(=O)c2c(NCCN=Cc3cc([N+](=O)[O-])ccc3O)cccc21 | 3.67 | > 100
3 | CC(=O)OC[C@]12CC[C@@H](C(=O)CBr)[C@@H]1[C@H]1CC[C@@H]3[C@@]4(C)CCCNC(C)(C)[C@@H]4CC[C@@]3(C)[C@]1(C)CC2 | 2.61 | 8.33
4 | COc1cc2c3c(n(CCCCN)c(=O)c2cc1OC)-c1cc2c(cc1C3=O)OCO2 | 0.431 | 2.17
5 | C=CCC1(O)c2ccccc2C(=O)c2c(NCCN(CC(=O)OCC)CC(=O)OCC)cccc21 (stereo not drawn) | 30.9 | > 100
6 | COc1cccc(-n2nc(C)c3c(N/N=C(\C)c4ccncc4)ncnc32)c1 | > 25 | > 25
7 | Cc1ccc(-c2nc(C#N)c(S(=O)(=O)n3nc(C)cc3N)o2)cc1 | 1.25 | 4.3
8 | CCn1cnc(C[C@H](NC(=O)[C@@H](NC(=O)Nc2cc(C(F)(F)F)cc(C(F)(F)F)c2)C(C)C)C(=O)OC)c1 | 6.38 | > 10
9 | O=C(Nc1cccc(-n2cc(-c3ccncc3)c(-c3ccc(Cl)c(O)c3)n2)c1)c1ccc(N2CCOCC2)c(C(F)(F)F)c1 | 1.88 | > 50
10 | COc1ccc2c(=O)cc(-c3ccncc3)oc2c1OC | – | > 100
11 | O=C(Nc1ccncc1)C(=O)c1cn(Cc2ccc(Cl)cc2)c2ccccc12 | 0.0265 | 34.8
12 | CC(=O)C(=Cc1ccc(C=C(C(C)=O)C(C)=O)cc1)C(C)=O | – | 6.12
13 | O=C(O)c1cc2ccc3ccccc3c2oc1=O | – | > 100
14 | O=[N+]([O-])c1ccc2c(c1)Cc1cc(N=Cc3ccc4c(c3)OCO4)ccc1-2 | – | > 100
15 | COC(=O)[C@@]12OC[C@]34[C@H]([C@@H](O)[C@@H]1O)[C@@]1(C)[C@H](O)C(=O)C=C(C)[C@@H]1C[C@H]3OC(=O)C(OC(C)=O)[C@@H]24 (stereo partly drawn) | 0.0314 | –

Tested on: NCI-H23 lung
Test: NCI anticancer screen, dose series, 48 h

Row | SMILES | GI50 [µM] | TGI [µM]
16 | Nc1nc(N)c2nc(CNc3ccc(C(=O)NC(CC(=O)O)C(=O)O)cc3)cnc2n1 (stereo not drawn) | 2.38 | > 100
17 | O=C1c2cccc(NCCN=Cc3cc([N+](=O)[O-])ccc3O)c2C(=O)c2c(NCCN=Cc3cc([N+](=O)[O-])ccc3O)cccc21 | 5.8 | > 100
18 | CC(=O)OC[C@]12CC[C@@H](C(=O)CBr)[C@@H]1[C@H]1CC[C@@H]3[C@@]4(C)CCCNC(C)(C)[C@@H]4CC[C@@]3(C)[C@]1(C)CC2 | 7.01 | 23.5
19 | COc1cc2c3c(n(CCCCN)c(=O)c2cc1OC)-c1cc2c(cc1C3=O)OCO2 | 0.676 | 3.09
20 | C=CCC1(O)c2ccccc2C(=O)c2c(NCCN(CC(=O)OCC)CC(=O)OCC)cccc21 (stereo not drawn) | > 100 | > 100
21 | COc1cccc(-n2nc(C)c3c(N/N=C(\C)c4ccncc4)ncnc32)c1 | > 25 | > 25
22 | Cc1ccc(-c2nc(C#N)c(S(=O)(=O)n3nc(C)cc3N)o2)cc1 | 13.9 | 37.3
23 | CCn1cnc(C[C@H](NC(=O)[C@@H](NC(=O)Nc2cc(C(F)(F)F)cc(C(F)(F)F)c2)C(C)C)C(=O)OC)c1 | 2.69 | > 10
24 | O=C(Nc1cccc(-n2cc(-c3ccncc3)c(-c3ccc(Cl)c(O)c3)n2)c1)c1ccc(N2CCOCC2)c(C(F)(F)F)c1 | 4.2 | 30.2
25 | COc1ccc2c(=O)cc(-c3ccncc3)oc2c1OC | – | > 100
26 | O=C(Nc1ccncc1)C(=O)c1cn(Cc2ccc(Cl)cc2)c2ccccc12 | 0.0548 | > 100
27 | CC(=O)C(=Cc1ccc(C=C(C(C)=O)C(C)=O)cc1)C(C)=O | – | 4.59
28 | O=C(O)c1cc2ccc3ccccc3c2oc1=O | – | > 100
29 | O=[N+]([O-])c1ccc2c(c1)Cc1cc(N=Cc3ccc4c(c3)OCO4)ccc1-2 | – | > 100
30 | COC(=O)[C@@]12OC[C@]34[C@H]([C@@H](O)[C@@H]1O)[C@@]1(C)[C@H](O)C(=O)C=C(C)[C@@H]1C[C@H]3OC(=O)C(OC(C)=O)[C@@H]24 (stereo partly drawn) | 0.0187 | 0.0567

Tested on: OVCAR-8 ovarian
Test: NCI anticancer screen, dose series, 48 h

Row | SMILES | GI50 [µM] | TGI [µM]
31 | Nc1nc(N)c2nc(CNc3ccc(C(=O)NC(CC(=O)O)C(=O)O)cc3)cnc2n1 (stereo not drawn) | 0.589 | > 100
32 | O=C1c2cccc(NCCN=Cc3cc([N+](=O)[O-])ccc3O)c2C(=O)c2c(NCCN=Cc3cc([N+](=O)[O-])ccc3O)cccc21 | 2.55 | > 100
33 | CC(=O)OC[C@]12CC[C@@H](C(=O)CBr)[C@@H]1[C@H]1CC[C@@H]3[C@@]4(C)CCCNC(C)(C)[C@@H]4CC[C@@]3(C)[C@]1(C)CC2 | 4.1 | 23.8
34 | COc1cc2c3c(n(CCCCN)c(=O)c2cc1OC)-c1cc2c(cc1C3=O)OCO2 | 0.71 | 13.1
35 | C=CCC1(O)c2ccccc2C(=O)c2c(NCCN(CC(=O)OCC)CC(=O)OCC)cccc21 (stereo not drawn) | > 100 | > 100
36 | COc1cccc(-n2nc(C)c3c(N/N=C(\C)c4ccncc4)ncnc32)c1 | > 25 | > 25
37 | Cc1ccc(-c2nc(C#N)c(S(=O)(=O)n3nc(C)cc3N)o2)cc1 | 4.66 | 20.9
38 | CCn1cnc(C[C@H](NC(=O)[C@@H](NC(=O)Nc2cc(C(F)(F)F)cc(C(F)(F)F)c2)C(C)C)C(=O)OC)c1 | 1.95 | 3.74
39 | O=C(Nc1cccc(-n2cc(-c3ccncc3)c(-c3ccc(Cl)c(O)c3)n2)c1)c1ccc(N2CCOCC2)c(C(F)(F)F)c1 | 3.16 | > 50
40 | COc1ccc2c(=O)cc(-c3ccncc3)oc2c1OC | – | > 100
41 | O=C(Nc1ccncc1)C(=O)c1cn(Cc2ccc(Cl)cc2)c2ccccc12 | 0.0549 | > 100
42 | CC(=O)C(=Cc1ccc(C=C(C(C)=O)C(C)=O)cc1)C(C)=O | – | 14.6
43 | O=C(O)c1cc2ccc3ccccc3c2oc1=O | – | > 100
44 | O=[N+]([O-])c1ccc2c(c1)Cc1cc(N=Cc3ccc4c(c3)OCO4)ccc1-2 | – | > 100
45 | COC(=O)[C@@]12OC[C@]34[C@H]([C@@H](O)[C@@H]1O)[C@@]1(C)[C@H](O)C(=O)C=C(C)[C@@H]1C[C@H]3OC(=O)C(OC(C)=O)[C@@H]24 (stereo partly drawn) | 0.0371 | 0.266

Tested on: PC-3 prostate
Test: NCI anticancer screen, dose series, 48 h

Row | SMILES | GI50 [µM] | TGI [µM]
46 | Nc1nc(N)c2nc(CNc3ccc(C(=O)NC(CC(=O)O)C(=O)O)cc3)cnc2n1 (stereo not drawn) | 0.319 | > 75.7
47 | O=C1c2cccc(NCCN=Cc3cc([N+](=O)[O-])ccc3O)c2C(=O)c2c(NCCN=Cc3cc([N+](=O)[O-])ccc3O)cccc21 | 3.25 | > 100
48 | CC(=O)OC[C@]12CC[C@@H](C(=O)CBr)[C@@H]1[C@H]1CC[C@@H]3[C@@]4(C)CCCNC(C)(C)[C@@H]4CC[C@@]3(C)[C@]1(C)CC2 | 1.65 | 3.72
49 | COc1cc2c3c(n(CCCCN)c(=O)c2cc1OC)-c1cc2c(cc1C3=O)OCO2 | 0.159 | 0.583
50 | C=CCC1(O)c2ccccc2C(=O)c2c(NCCN(CC(=O)OCC)CC(=O)OCC)cccc21 (stereo not drawn) | 97.1 | > 100
51 | COc1cccc(-n2nc(C)c3c(N/N=C(\C)c4ccncc4)ncnc32)c1 | > 25 | > 25
52 | Cc1ccc(-c2nc(C#N)c(S(=O)(=O)n3nc(C)cc3N)o2)cc1 | 13.8 | 29.8
53 | CCn1cnc(C[C@H](NC(=O)[C@@H](NC(=O)Nc2cc(C(F)(F)F)cc(C(F)(F)F)c2)C(C)C)C(=O)OC)c1 | 1.97 | 4.03
54 | O=C(Nc1cccc(-n2cc(-c3ccncc3)c(-c3ccc(Cl)c(O)c3)n2)c1)c1ccc(N2CCOCC2)c(C(F)(F)F)c1 | 2.15 | > 50
55 | COc1ccc2c(=O)cc(-c3ccncc3)oc2c1OC | – | > 100
56 | O=C(Nc1ccncc1)C(=O)c1cn(Cc2ccc(Cl)cc2)c2ccccc12 | 0.0419 | > 100
57 | CC(=O)C(=Cc1ccc(C=C(C(C)=O)C(C)=O)cc1)C(C)=O | – | 5.17
58 | O=C(O)c1cc2ccc3ccccc3c2oc1=O | – | > 100
59 | O=[N+]([O-])c1ccc2c(c1)Cc1cc(N=Cc3ccc4c(c3)OCO4)ccc1-2 | – | > 100
60 | COC(=O)[C@@]12OC[C@]34[C@H]([C@@H](O)[C@@H]1O)[C@@]1(C)[C@H](O)C(=O)C=C(C)[C@@H]1C[C@H]3OC(=O)C(OC(C)=O)[C@@H]24 (stereo partly drawn) | 0.0334 | 0.134

Tested on: RXF 393 renal
Test: NCI anticancer screen, dose series, 48 h

Row | SMILES | GI50 [µM] | TGI [µM]
61 | Nc1nc(N)c2nc(CNc3ccc(C(=O)NC(CC(=O)O)C(=O)O)cc3)cnc2n1 (stereo not drawn) | > 72.4 | > 100
62 | O=C1c2cccc(NCCN=Cc3cc([N+](=O)[O-])ccc3O)c2C(=O)c2c(NCCN=Cc3cc([N+](=O)[O-])ccc3O)cccc21 | 7.01 | > 100
63 | CC(=O)OC[C@]12CC[C@@H](C(=O)CBr)[C@@H]1[C@H]1CC[C@@H]3[C@@]4(C)CCCNC(C)(C)[C@@H]4CC[C@@]3(C)[C@]1(C)CC2 | 1.83 | 3.64
64 | COc1cc2c3c(n(CCCCN)c(=O)c2cc1OC)-c1cc2c(cc1C3=O)OCO2 | 1.47 | 5.72
65 | C=CCC1(O)c2ccccc2C(=O)c2c(NCCN(CC(=O)OCC)CC(=O)OCC)cccc21 (stereo not drawn) | > 100 | > 100
66 | COc1cccc(-n2nc(C)c3c(N/N=C(\C)c4ccncc4)ncnc32)c1 | 8.15 | > 25
67 | Cc1ccc(-c2nc(C#N)c(S(=O)(=O)n3nc(C)cc3N)o2)cc1 | 1.87 | 3.56
68 | CCn1cnc(C[C@H](NC(=O)[C@@H](NC(=O)Nc2cc(C(F)(F)F)cc(C(F)(F)F)c2)C(C)C)C(=O)OC)c1 | 1.73 | 3.32
69 | O=C(Nc1cccc(-n2cc(-c3ccncc3)c(-c3ccc(Cl)c(O)c3)n2)c1)c1ccc(N2CCOCC2)c(C(F)(F)F)c1 | 0.626 | 2.9
70 | COc1ccc2c(=O)cc(-c3ccncc3)oc2c1OC | – | 69.6
71 | O=C(Nc1ccncc1)C(=O)c1cn(Cc2ccc(Cl)cc2)c2ccccc12 | 0.0302 | –
72 | CC(=O)C(=Cc1ccc(C=C(C(C)=O)C(C)=O)cc1)C(C)=O | – | 3.51
73 | O=C(O)c1cc2ccc3ccccc3c2oc1=O | – | > 100
74 | O=[N+]([O-])c1ccc2c(c1)Cc1cc(N=Cc3ccc4c(c3)OCO4)ccc1-2 | – | > 100
75 | COC(=O)[C@@]12OC[C@]34[C@H]([C@@H](O)[C@@H]1O)[C@@]1(C)[C@H](O)C(=O)C=C(C)[C@@H]1C[C@H]3OC(=O)C(OC(C)=O)[C@@H]24 (stereo partly drawn) | 0.0253 | 0.0673
